# Data from article PMC5887547, “An allosteric inhibitor of Mycobacterium tuberculosis ArgJ: Implications to a novel combinatorial therapy” (EMBO Molecular Medicine, 2018).
# pKd: −log10 of the molar value.
# Experiments:
# [1] = target: T1, Ornithine acetyltransferase (MtArgJ) (Mycobacterium tuberculosis, UniProt P9WPZ3); assay: […]; marginal decrease of enzyme activity (TLC assay); type: binding
# T1 construct: gene argJ
# [2] = target: T1, Ornithine acetyltransferase (MtArgJ); assay: thermal shift assay (apparent Kd); also ANS displacement ([…]) and enzyme inhibition by TLC assay (Dixon Ki […]); type: binding
# [3] = system: CC(=O)N[C@@H](CCCN)C(=O)O; assay: purified protein; conditions: active (substrate-binding) site
# T1 sequence (P9WPZ3 1-199): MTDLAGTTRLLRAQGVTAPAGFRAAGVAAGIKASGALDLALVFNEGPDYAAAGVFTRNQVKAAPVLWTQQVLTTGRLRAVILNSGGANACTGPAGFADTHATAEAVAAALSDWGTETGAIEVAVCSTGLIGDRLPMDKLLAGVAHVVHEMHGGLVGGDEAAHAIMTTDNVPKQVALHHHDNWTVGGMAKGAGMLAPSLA
# T1 sequence (P9WPZ3 200-404): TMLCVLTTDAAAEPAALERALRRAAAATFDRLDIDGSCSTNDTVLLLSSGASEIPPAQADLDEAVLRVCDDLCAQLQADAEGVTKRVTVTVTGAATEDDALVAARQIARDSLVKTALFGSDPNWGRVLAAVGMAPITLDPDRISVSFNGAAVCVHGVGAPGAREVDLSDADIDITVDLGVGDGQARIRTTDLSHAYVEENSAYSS
compound,measurement,setting,value
"O=S(=O)(O)c1cccc2cccc(Nc3ccccc3)c12 [ANS, 8‐anilinonaphthalene‐1‐sulfonic acid]",pKd,[1],3.03
"O=C(Nc1cccc2c(=O)cc(-c3nnn[nH]3)oc12)c1ccc(OCCCCc2ccccc2)cc1 [PRK, Pranlukast]",pKd,[2],3.90
Ornithine acetyltransferase (MtArgJ) (Mycobacterium tuberculosis H37Rv),Km,[3],91.8 µM
